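The compound was tested at five concentrations on cells cultured in 96-well plates, with a 48-hour exposure period. GI50 = concentration required for 50% inhibition of growth. Definition used: TGI = concentration required for complete inhibition of growth.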
How the values were obtained:
Assay in all cases: NCI tumour cell line growth inhibition, 48 h; in the data active = GI50 below about 0.43 µM; inactive = the rest
NCI-H522 lung = tested on: NCI-H522 lung
K-562 leukemia = tested on: K-562 leukemia
SK-MEL-5 melanoma = tested on: SK-MEL-5 melanoma
NCI-H23 lung = tested on: NCI-H23 lung
SN12C renal = tested on: SN12C renal
SK-MEL-2 melanoma = tested on: SK-MEL-2 melanoma
TK-10 renal = tested on: TK-10 renal
UACC-257 melanoma = tested on: UACC-257 melanoma
PC-3 prostate = tested on: PC-3 prostate
IGROV1 ovarian = tested on: IGROV1 ovarian
SW-620 colon = tested on: SW-620 colon
CAKI-1 renal = tested on: CAKI-1 renal
M14 melanoma = tested on: M14 melanoma
UO-31 renal = tested on: UO-31 renal
UACC-62 melanoma = tested on: UACC-62 melanoma
MDA-MB-435 = tested on: MDA-MB-435
OVCAR-5 ovarian = tested on: OVCAR-5 ovarian
HL-60(TB) leukemia = tested on: HL-60(TB) leukemia
HOP-62 NSCLC = tested on: HOP-62 NSCLC
MDA-N = tested on: MDA-N
HCT-116 colon = tested on: HCT-116 colon
U251 CNS = tested on: U251 CNS
MCF7 breast = tested on: MCF7 breast
SK-MEL-28 melanoma = tested on: SK-MEL-28 melanoma
OVCAR-8 ovarian = tested on: OVCAR-8 ovarian
NCI/ADR-RES ovarian = tested on: NCI/ADR-RES ovarian
NCI-H460 lung = tested on: NCI-H460 lung
ACHN renal = tested on: ACHN renal
COLO 205 colon = tested on: COLO 205 colon
RXF 393 renal = tested on: RXF 393 renal
HCT-15 colon = tested on: HCT-15 colon
OVCAR-4 ovarian = tested on: OVCAR-4 ovarian
786-0 renal = tested on: 786-0 renal
BT-549 breast = tested on: BT-549 breast
A549 NSCLC = tested on: A549 NSCLC
OVCAR-3 ovarian = tested on: OVCAR-3 ovarian
HOP-92 NSCLC = tested on: HOP-92 NSCLC
KM12 colon = tested on: KM12 colon
NCI-H226 lung = tested on: NCI-H226 lung
MALME-3M melanoma = tested on: MALME-3M melanoma
DU-145 prostate = tested on: DU-145 prostate
CCRF-CEM leukemia = tested on: CCRF-CEM leukemia
SNB-19 CNS = tested on: SNB-19 CNS
HT29 colon = tested on: HT29 colon
A498 renal = tested on: A498 renal
MOLT-4 leukemia = tested on: MOLT-4 leukemia
SF-295 CNS = tested on: SF-295 CNS
T-47D breast = tested on: T-47D breast
LOX IMVI melanoma = tested on: LOX IMVI melanoma
MDA-MB-231 breast = tested on: MDA-MB-231 breast
RPMI-8226 leukemia = tested on: RPMI-8226 leukemia
SK-OV-3 ovarian = tested on: SK-OV-3 ovarian
EKVX NSCLC = tested on: EKVX NSCLC
SF-268 CNS = tested on: SF-268 CNS
SF-539 CNS = tested on: SF-539 CNS
HS 578T breast = tested on: HS 578T breast
SR leukemia = tested on: SR leukemia
SNB-75 CNS = tested on: SNB-75 CNS
HCC-2998 colon = tested on: HCC-2998 colon

O=C1NC(=S)NC(=O)C1C(c1ccc(O)cc1)C1C(=O)NC(=S)NC1=O
> 100 µM: TGI (NCI-H522 lung) | TGI (K-562 leukemia) | TGI (SK-MEL-5 melanoma) | TGI (NCI-H23 lung) | TGI (SN12C renal) | TGI (SK-MEL-2 melanoma) | TGI (TK-10 renal) | TGI (UACC-257 melanoma) | TGI (PC-3 prostate) | TGI (IGROV1 ovarian) | TGI (SW-620 colon) | TGI (CAKI-1 renal) | TGI (M14 melanoma) | TGI (UO-31 renal) | TGI (UACC-62 melanoma) | TGI (MDA-MB-435) | TGI (OVCAR-5 ovarian) | TGI (HL-60(TB) leukemia) | TGI (HOP-62 NSCLC) | TGI (MDA-N) | TGI (HCT-116 colon) | TGI (U251 CNS) | TGI (MCF7 breast) | TGI (SK-MEL-28 melanoma) | TGI (OVCAR-8 ovarian) | TGI (NCI/ADR-RES ovarian) | TGI (NCI-H460 lung) | TGI (ACHN renal) | TGI (COLO 205 colon) | TGI (RXF 393 renal) | TGI (HCT-15 colon) | TGI (OVCAR-4 ovarian) | TGI (786-0 renal) | TGI (BT-549 breast) | TGI (A549 NSCLC) | TGI (OVCAR-3 ovarian) | TGI (HOP-92 NSCLC) | TGI (KM12 colon) | TGI (NCI-H226 lung) | TGI (MALME-3M melanoma) | TGI (DU-145 prostate) | TGI (CCRF-CEM leukemia) | TGI (SNB-19 CNS) | TGI (HT29 colon) | TGI (A498 renal) | TGI (MOLT-4 leukemia) | TGI (SF-295 CNS) | TGI (T-47D breast) | TGI (LOX IMVI melanoma) | TGI (MDA-MB-231 breast) | TGI (RPMI-8226 leukemia)

CN1CCc2nc(N)nc(-c3nc(N)nc4c3CN(C)CC4)c2C1
> 100 µM: TGI (SK-OV-3 ovarian) | TGI (NCI-H522 lung) | TGI (K-562 leukemia) | TGI (SK-MEL-5 melanoma) | TGI (NCI-H23 lung) | TGI (EKVX NSCLC) | TGI (SN12C renal) | TGI (SK-MEL-2 melanoma) | TGI (TK-10 renal) | TGI (UACC-257 melanoma) | TGI (PC-3 prostate) | TGI (IGROV1 ovarian) | TGI (SW-620 colon) | TGI (CAKI-1 renal) | TGI (SF-268 CNS) | TGI (M14 melanoma) | TGI (UO-31 renal) | TGI (UACC-62 melanoma) | TGI (MDA-MB-435) | TGI (OVCAR-5 ovarian) | TGI (HL-60(TB) leukemia) | TGI (HOP-62 NSCLC) | TGI (MDA-N) | TGI (HCT-116 colon) | TGI (U251 CNS) | TGI (MCF7 breast) | TGI (SK-MEL-28 melanoma) | TGI (OVCAR-8 ovarian) | TGI (NCI/ADR-RES ovarian) | TGI (NCI-H460 lung) | TGI (ACHN renal) | TGI (COLO 205 colon) | TGI (RXF 393 renal) | TGI (HCT-15 colon) | TGI (OVCAR-4 ovarian) | TGI (786-0 renal) | TGI (BT-549 breast) | TGI (SF-539 CNS) | TGI (A549 NSCLC) | TGI (OVCAR-3 ovarian) | TGI (HS 578T breast) | TGI (HOP-92 NSCLC) | TGI (KM12 colon) | TGI (NCI-H226 lung) | TGI (MALME-3M melanoma) | TGI (DU-145 prostate) | TGI (SNB-19 CNS) | TGI (HT29 colon) | TGI (A498 renal) | TGI (MOLT-4 leukemia) | TGI (SF-295 CNS) | TGI (T-47D breast) | TGI (SR leukemia) | TGI (LOX IMVI melanoma) | TGI (MDA-MB-231 breast) | TGI (RPMI-8226 leukemia)

N#Cc1ccccc1CSc1ncnc2nc[nH]c12
67.1 µM: TGI (SNB-75 CNS)
inactive: GI50 (K-562 leukemia) 67.2 µM | GI50 (SK-MEL-5 melanoma) 74.3 µM | GI50 (EKVX NSCLC) 90.1 µM | GI50 (UACC-257 melanoma) 44.5 µM | GI50 (UO-31 renal) 47.4 µM | GI50 (UACC-62 melanoma) 77.2 µM | GI50 (MDA-N) 83.3 µM | GI50 (NCI/ADR-RES ovarian) 60.4 µM | GI50 (NCI-H460 lung) 83.3 µM | GI50 (RXF 393 renal) 94.9 µM | GI50 (SNB-75 CNS) 9.8 µM | GI50 (BT-549 breast) 56.6 µM | GI50 (HS 578T breast) 51.9 µM | GI50 (HOP-92 NSCLC) 28.6 µM | GI50 (MOLT-4 leukemia) 80.3 µM | GI50 (MDA-MB-231 breast) 51 µM | GI50 (RPMI-8226 leukemia) 53.1 µM

COc1cccc2c1C(=O)c1c(O)c3c(c(O)c1C2=O)CC(O)(C(=O)CO)CC3OC1CC(N2CCOCC2C#N)C(O)C(C)O1 (stereo not drawn)
12.2 µM: TGI (HCT-116 colon)
0.0569 µM: TGI (SW-620 colon)
0.00109 µM: TGI (SN12C renal)
< 0.0001 µM: TGI (NCI-H522 lung) | TGI (EKVX NSCLC) | TGI (SK-MEL-2 melanoma) | TGI (UACC-257 melanoma) | TGI (PC-3 prostate) | TGI (M14 melanoma) | TGI (UACC-62 melanoma) | TGI (MDA-MB-435) | TGI (HL-60(TB) leukemia) | TGI (HOP-62 NSCLC) | TGI (MDA-N) | TGI (SK-MEL-28 melanoma) | TGI (COLO 205 colon) | TGI (HCC-2998 colon) | TGI (SF-539 CNS) | TGI (NCI-H226 lung) | TGI (CCRF-CEM leukemia) | TGI (MOLT-4 leukemia) | TGI (T-47D breast) | TGI (MDA-MB-231 breast)
3.28 µM: TGI (OVCAR-3 ovarian)
0.00357 µM: TGI (NCI/ADR-RES ovarian)
0.128 µM: TGI (NCI-H23 lung)
0.00113 µM: TGI (BT-549 breast)
19.1 µM: TGI (OVCAR-5 ovarian)
5.22 µM: TGI (786-0 renal)
0.00425 µM: TGI (CAKI-1 renal)
1.56 µM: TGI (HCT-15 colon)
2.4 µM: TGI (SK-OV-3 ovarian)
> 100 µM: TGI (A549 NSCLC) | TGI (DU-145 prostate) | TGI (SR leukemia)

Nc1nc(-[n+]2ccc(-c3ccncc3)cc2)nc(Cl)c1Cl
59 µM: TGI (TK-10 renal)
54.9 µM: TGI (NCI-H23 lung)
38.9 µM: TGI (HL-60(TB) leukemia)
42.5 µM: TGI (SN12C renal)
40.8 µM: TGI (UACC-257 melanoma)
95.9 µM: TGI (MDA-MB-231 breast)
48 µM: TGI (HOP-92 NSCLC)
91.7 µM: TGI (K-562 leukemia)
37.2 µM: TGI (MOLT-4 leukemia)
32.8 µM: TGI (RXF 393 renal)
33.2 µM: TGI (LOX IMVI melanoma)
33.3 µM: TGI (IGROV1 ovarian)
33.5 µM: TGI (OVCAR-3 ovarian)
41 µM: TGI (SR leukemia)
45.9 µM: TGI (T-47D breast)
21.8 µM: TGI (MCF7 breast)
68.1 µM: TGI (SF-539 CNS)
31.8 µM: TGI (CCRF-CEM leukemia)
34.6 µM: TGI (SF-268 CNS)
> 100 µM: TGI (SK-OV-3 ovarian) | TGI (SK-MEL-5 melanoma) | TGI (EKVX NSCLC) | TGI (SK-MEL-2 melanoma) | TGI (PC-3 prostate) | TGI (SW-620 colon) | TGI (M14 melanoma) | TGI (UO-31 renal) | TGI (UACC-62 melanoma) | TGI (MDA-MB-435) | TGI (OVCAR-5 ovarian) | TGI (HOP-62 NSCLC) | TGI (MDA-N) | TGI (HCT-116 colon) | TGI (U251 CNS) | TGI (SK-MEL-28 melanoma) | TGI (NCI/ADR-RES ovarian) | TGI (NCI-H460 lung) | TGI (ACHN renal) | TGI (COLO 205 colon) | TGI (HCC-2998 colon) | TGI (HCT-15 colon) | TGI (OVCAR-4 ovarian) | TGI (BT-549 breast) | TGI (A549 NSCLC) | TGI (KM12 colon) | TGI (NCI-H226 lung) | TGI (MALME-3M melanoma) | TGI (DU-145 prostate) | TGI (SNB-19 CNS) | TGI (HT29 colon) | TGI (A498 renal) | TGI (RPMI-8226 leukemia)
57.9 µM: TGI (786-0 renal)

— PubChem BioAssay (NCI)
